How the values were obtained:
[1] = target: T1, MC4R (Homo sapiens, UniProt P32245); assay: Assay of MC4R antagonist activity in cells in vitro (cAMP assay, Melanotan I stimulation); assay type: cell-based; conditions: flipin-293-MC4 cell line, Melanotan I as agonist
T1 construct: expressed in transfected cells; host or cells: flipin-293-MC4 (Flp-In 293 host, hygromycin selection)
Procedure: Test Example 1: Assay of MC4R antagonist activity in cells in vitro
a. Experimental consumables:
b. Experimental steps • ✔ Cell line: flipin-293-MC4 • ✔ Cell culture medium: DMEM, 10% fetal bovine serum, 1 × PS, 200 µg/mL hygromycin • ✔ Experimental buffer: HBSS, 20 mM HEPES, 0.1% BSA, 500 µM IBMX • ✔ Positive compound: ML00253764 c. Antagonist detection • 1. Digested cells were suspended in the experimental buffer, and then inoculated into the 384-well cell culture plate. • 2. The to-be-detected compound was added to the cell plate, and incubated at 37°C for 10 min. • 3. Melanotan I was added to the cell plate, and incubated at 37°C for 30 min. • 4. Two detection reagents EU cAMP tracer and ulight anti camp were thawed and diluted with a lysis solution in the kit. • 5. The diluted detection reagents were added to the cell plate and incubated at room temperature for 1 h. • 6. Reading was carried out by Envision. (Excitation light: 340 nm, emission light: 615 nm and 665 nm) d. Data analysis • 1. %Inhibition calculation: %Inhibition = (Signalcmpd−SignalAve_VC)/(SignalAve_PC−SignalAve_VC) × 100. [formula] • Signalcmpd: compound signal value; • SignalAve_VC: negative control signal value; • SignalAve_PC: positive control signal value; • %inhibition: inhibition percentage. • 2. Calculation of IC50 of the compound using the nonlinear fitting equation in GraphPad: Y = Bottom + (Top−Bottom)/(1+10^(∧)((LogIC50−X)×HillSlope)) [formula] X: logarithmic value of the concentration of the compound; Y: inhibition percentage

[2] = Pharmacokinetic study on the tested compound in SD male rats; assay type: in vivo; conditions: IV 1 mpk/PO 2 mpk; for AUC / Cmax / clearance / half-life: Sprague-Dawley (SD), rat, plasma
Procedure: On the day of administration, the tested compound was prepared with 5% DMSO + 5% Solutol + 90% Saline as a solvent into a solution for administration for use.
The solution for administration was administered to an intravenous injection IV group at a dose of 1 mg/kg in a concentration of 0.2 mg/mL. The solution for administration was administered to an oral gavage PO group at a dose of 2 mg/kg in a concentration of 0.2 mg/mL. The animals in the PO group were required to fast overnight in advance, drink water freely, and be fed 4 hours after administration. The IV group was not required to fast.
The animals were weighed before administration. On the day of administration, the solution was IV/PO-administered once in an administration amount calculated based on the weight. In the IV group, blood was collected from veins at 0.083 h, 0.25 h, 0.5 h, 1.0 h, 2.0 h, 4.0 h, 8.0 h, and 24 h after administration. In the PO group, blood was collected from veins at 0.25 h, 0.5 h, 1.0 h, 2.0 h, 4.0 h, 6.0 h, 8.0 h, and 24 h after administration. The amount of blood collected was about 0.20 mL. K2-EDTA was used in blood collection tubes as an anticoagulant. The collected blood sample was centrifuged (centrifugation conditions: 6800 g, 6 min, 2°C to 8°C) within 1 h to obtain plasma. The to-be-tested sample was stored in a refrigerator at -80°C before analysis.
The concentration of the tested compound in the plasma of the SD male rats was detected by the validated LC-MS/MS method.

T1 sequence (P32245 whole entry): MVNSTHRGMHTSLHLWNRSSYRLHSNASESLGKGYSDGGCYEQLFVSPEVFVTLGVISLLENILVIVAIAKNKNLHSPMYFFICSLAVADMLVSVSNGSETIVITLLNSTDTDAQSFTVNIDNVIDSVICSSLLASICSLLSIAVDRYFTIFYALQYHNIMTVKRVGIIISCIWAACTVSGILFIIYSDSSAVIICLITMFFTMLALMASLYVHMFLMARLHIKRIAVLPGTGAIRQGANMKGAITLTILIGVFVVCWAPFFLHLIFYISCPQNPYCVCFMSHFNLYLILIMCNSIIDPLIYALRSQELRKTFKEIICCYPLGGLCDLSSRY

Row | Structure (SMILES) | IC50 [1] | F [2] | AUC [2] | Cmax [2] | clearance [2] | half-life [2]
1 | COc1cc([C@@H](C)C(=O)N2C[C@@H](Nc3ccc(-c4ncccn4)c(C)n3)C3(CC3)C2)c(F)cn1 [Compound 056-1, (2R)-2-(5-fluoro-2-methoxypyridine-4-yl)-1-[(7S)-7-{[6-methyl-5-(pyrimidine-2-yl)pyridine-2-yl]amino}-5-azaspiro[2.4]heptane-5-yl]propan-1-one] | 4.23 nM | 61.5% | 566 ng·h/mL | 380 ng/mL | 35.8 mL/min/kg | 53.4 min
2 | COc1cc([C@@H](C)C(=O)N2C[C@@H](Nc3ccc(-c4cn(C)c(OC(F)F)n4)c(C)n3)C3(CC3)C2)c(F)cn1 [Compound 185, (R)-1-((S)-7-((5-(2-(difluoromethoxy)-1-methyl-1H-imidazol-4-yl)-6-methylpyridine-2-yl)amino)-5-azaspiro[2.4]hept-5-yl)-2-(5-fluoro-2-methoxypyridine-4-yl)propan-1-one] | 0.54 nM | 22.9% | 170 ng·h/mL | 129 ng/mL | 45.4 mL/min/kg | 40.8 min
3 | COc1cc([C@@H](C)C(=O)N2C[C@@H](Nc3ccc(-c4cn(C)c(OC)n4)c(C)n3)C3(CC3)C2)c(Cl)cn1 [Compound 184, (R)-2-(5-chloro-2-methoxypyridine-4-yl)-1-((S)-7-((5-(2-methoxy-1-methyl-1H-imidazol-4-yl)-6-methylpyridine-2-yl)amino)-5-azaspiro[2.4]hept-5-yl)propan-1-one] | 1.49 nM | – | – | – | – | –
4 | COc1cc([C@@H](C)C(=O)N2C[C@@H](Nc3ccc(-c4cn(C)c(OC(F)F)n4)c(C)n3)C3(CC3)C2)c(Cl)cn1 [Compound 186, (R)-2-(5-chloro-2-methoxypyridine-4-yl)-1-((S)-7-((5-(2-(difluoromethoxy)-1-methyl-1H-imidazol-4-yl)-6-methylpyridine-2-yl)amino)-5-azaspiro[2.4]hept-5-yl)propan-1-one] | 0.55 nM | – | – | – | – | –
5 | COc1cc([C@@H](C)C(=O)N2C[C@@H](Nc3ccc(-c4cnn(C)n4)c(C)n3)C3(CC3)C2)c(Cl)cn1 [Compound 166, (R)-2-(5-chloro-2-methoxypyridine-4-yl)-1-((S)-7-((6-methyl-5-(2-methyl-2H-1,2,3-triazol-4-yl)pyridine-2-yl)amino)-5-azaspiro[2.4]hept-5-yl)propan-1-one] | 4.03 nM | – | – | – | – | –
6 | COc1cc([C@@H](C)C(=O)N2C[C@@H](C)[C@H](Nc3ccc(-c4ncccn4)c(C)n3)C2)c(Cl)cn1 [Compound 198, (R)-2-(5-chloro-2-methoxypyridine-4-yl)-1-((3R,4S)-3-methyl-4-((6-methyl-5-(pyrimidine-2-yl)pyridine-2-yl)amino)pyrrolidine-1-yl)propan-1-one] | 4.9 nM | – | – | – | – | –
7 | COc1cc([C@@H](C)C(=O)N2C[C@@H](Nc3ccc(-c4cn(C)c(C)n4)c(C)n3)C3(CC3)C2)c(F)cn1 [Compound 149, (R)-1-((S)-7-((5-(1,2-dimethyl-1H-imidazol-4-yl)-6-methylpyridine-2-yl)amino)-5-azaspiro[2.4]hept-5-yl)-2-(5-fluoro-2-methoxypyridine-4-yl)propan-1-one] | 1.74 nM | – | – | – | – | –
8 | COc1cc([C@@H](C)C(=O)N2C[C@@H](Nc3ccc(-c4cn(C)cn4)c(C)n3)C3(CC3)C2)c(F)cn1 [Compound 150, (R)-2-(5-fluoro-2-methoxypyridine-4-yl)-1-((S)-7-((6-methyl-5-(1-methyl-1H-imidazol-4-yl)pyridine-2-yl)amino)-5-azaspiro[2.4]hept-5-yl)propan-1-one] | 1.84 nM | – | – | – | – | –
9 | COc1cc([C@@H](C)C(=O)N2C[C@@H](Nc3ccc(-c4cn5c(n4)C(F)(F)CC5)c(C)n3)C3(CC3)C2)c(F)cn1 [Compound 189, (R)-1-((S)-7-((5-(7,7-difluoro-6,7-dihydro-5H-pyrrolo[1,2-a]imidazol-2-yl)-6-methylpyridine-2-yl)amino)-5-azaspiro[2.4]hept-5-yl)-2-(5-fluoro-2-methoxypyridine-4-yl)propan-1-one] | 2.25 nM | – | – | – | – | –
10 | COc1cc([C@@H](C)C(=O)N2C[C@@H](Nc3ccc(-c4nc(C(F)F)n(C)n4)c(C)n3)C3(CC3)C2)c(F)cn1 [Compound 119, (R)-1-((S)-7-((5-(5-(difluoromethyl)-1-methyl-1H-1,2,4-triazole-3-yl)-6-methylpyridine-2-yl)amino)-5-azaspiro[2.4]heptane-5-yl)-2-(5-fluoro-2-methoxypyridine-4-yl)propan-1-one] | 1.71 nM | – | – | – | – | –
11 | COc1cc([C@@H](C)C(=O)N2C[C@@H](Nc3ccc(-c4ncccn4)c(C)n3)C(C)(C)C2)c(Cl)cn1 [Compound 199, (R)-2-(5-chloro-2-methoxypyridine-4-yl)-1-((S)-3,3-dimethyl-4-((6-methyl-5-(pyrimidine-2-yl)pyridine-2-yl)amino)pyrrolidine-1-yl)propan-1-one] | 366 nM | – | – | – | – | –
12 | COc1cc([C@@H](C)C(=O)N2C[C@@H](Nc3ccc(-c4cn5c(n4)C(F)(F)CC5)c(C)n3)C3(CC3)C2)c(Cl)cn1 [Compound 190, (R)-2-(5-chloro-2-methoxypyridine-4-yl)-1-((S)-7-((5-(7,7-difluoro-6,7-dihydro-5H-pyrrolo[1,2-a]imidazol-2-yl)-6-methylpyridine-2-yl)amino)-5-azaspiro[2.4]hept-5-yl)propan-1-one] | 1.1 nM | – | – | – | – | –

Continued by falling IC50 [1], values first:

Row | IC50 [1] | Structure (SMILES) | F [2] | AUC [2] | Cmax [2] | clearance [2] | half-life [2]
13 | 2.96 nM | COc1cc([C@@H](C)C(=O)N2C[C@H](C)[C@H](Nc3ccc(-c4ncccn4)c(C)n3)C2)c(F)cn1 [Compound 051-1, (R)-2-(5-fluoro-2-methoxypyridine-4-yl)-1-((3 S,4S)-3-methyl-4-(6-methyl-5-(pyrimidine-2-yl)pyridine-2-yl-amino)pyrrolidine-1-yl)propane-1-one] | 52.7% | 317 ng·h/mL | 329 ng/mL | 55.2 mL/min/kg | 15 min
14 | 2.88 nM | COc1cc([C@@H](C)C(=O)N2C[C@@H](Nc3ccc(-c4nc(C)n(C)n4)c(C)n3)C3(CC3)C2)c(Cl)cn1 [Compound 141, (2R)-2-(5-chloro-2-methoxypyridine-4-yl)-1-[(7S)-7-{[5-(1,5-dimethyl-1H-1,2,4-triazole-3-yl)-6-methylpyridine-2-yl]amino}-5-azaspiro[2.4]heptane-5-yl]propan-1-one] | – | – | – | – | –
15 | 2.78 nM | COc1ccc2nc(N[C@@H]3CN(C(=O)[C@H](C)c4cc(OC)ncc4F)CC34CC4)nc(C)c2c1 [Compound 115, (R)-2-(5-fluoro-2-methoxypyridine-4-yl)-1-((S)-7-((6-methoxy-4-methylquinazoline-2-yl)amino)-5-azaspiro[2.4]heptane-5-yl)propan-1-one] | – | – | – | – | –
16 | 2.3 nM | COc1cc([C@@H](C)C(=O)N2C[C@H](C)[C@H](Nc3ccc(-c4ncccn4)c(C)n3)C2)c(Cl)cn1 [Compound 112, (R)-2-(5-chloro-2-methoxypyridine-4-yl)-1-((3 S,4S)-3-methyl-4-(6-methyl-5-(pyrimidine-2-yl)pyridine-2-yl-amino)pyrrolidine-1-yl)propane-1-one] | 33.8% | 179 ng·h/mL | 157 ng/mL | 62.5 mL/min/kg | 15 min
17 | 1.28 nM | COc1cc([C@@H](C)C(=O)N2C[C@@H](Nc3ccc(-c4ncn(C)n4)c(C)n3)C3(CC3)C2)c(F)cn1 [Compound 136, (2R)-2-(5-fluoro-2-methoxypyridine-4-yl)-1-[(7S)-7-{[6-methyl-5-(1-methyl-1H-1,2,4-triazole-3-yl)pyridine-2-yl]amino}-5-azaspiro[2.4]heptane-5-yl]propan-1-one] | – | – | – | – | –
18 | 0.99 nM | COc1cc([C@@H](C)C(=O)N2CC[C@H](Nc3ccc(-c4cn(C)nn4)c(C)n3)C2)c(Cl)cn1 [Compound 195, (R)-2-(5-chloro-2-methoxypyridine-4-yl)-1-((S)-3-((6-methyl-5-(1-methyl-1H-1,2,3-triazol-4-yl)pyridine-2-yl)amino)pyrrolidine-1-yl)propan-1-one] | – | – | – | – | –

Source: patent EP4620955A1, “MC4R ANTAGONIST COMPOUND, PHARMACEUTICAL COMPOSITION AND PHARMACEUTICAL USE THEREOF” (Changchun Genescience Pharmaceutical Co., Ltd., priority 2022, dated 2024)
